Usually IC50 stands for the concentration needed to halve the response being measured. Read a low IC50 as greater potency in that assay.

A value given as a limit tells only on which side of the number the result lay.

We go through 10 compounds from BindingDB's records for patent US10954228 (The Trustees of The University of Pennsylvania, 2021).

For the assay, the target named is L-lactate dehydrogenase A chain (Homo sapiens, UniProt P00338). Kind of assay: Biochemical Assay. Here is the method: Test compounds were placed in a Greiner Bio-One (Monroe, N.C.) 1536-well black solid bottom assay plate. 200 millimolar (mM) Tris HCl, pH 7.4, 100 micromolar (μM) EDTA and 0.01% TWEEN-20, final concentration, was used as the assay buffer. The LDHA reagent was 2 nanomolar (nM) Human LDHA (Meridian Life Science, Inc., Memphis, Tenn.), final concentration, in assay buffer. The substrate reagent was 0.06 mM NADH and 0.2 mM sodium pyruvate, final concentration, in assay buffer. The resazurin/diaphorase coupling reagent was 0.037 mM resazurin and 0.133 milligrams per milliliter (mg/mL) diaphorase, final concentration, in assay buffer. The inhibition of LDHA activity was measured by fluorescence emission.
`CCC#Cc1cc(-c2nn(-c3nc(C(=O)O)cs3)c(CC3CC3)c2Cc2ccc([S+](N)(=O)[O-])c(F)c2)ccc1F` [US10954228, Compound 109]: the IC50 was < 100 nM.
As for `Cc1ccc(C#Cc2cccc(-c3nn(-c4nc(C(=O)O)cs4)c(C4CC4C4CC4)c3Cc3ccc([S+](N)(=O)[O-])c(F)c3)c2)s1` (stereo not given) [US10954228, Compound 134], the figure is 100 to 1000 nM; as for `NS(=O)(=O)c1ccc(Cc2c(-c3cccc(C(=O)N4CCCC4)c3)nn(-c3nc(C(=O)O)cs3)c2CC2CC2)cc1` [US10954228, Compound 145], < 100 nM.
In the case of `CC(C)(C)NC(=O)c1cc(-c2nn(-c3nc(C(=O)O)cs3)c(CC3CC3)c2Cc2ccc([S+](N)(=O)[O-])c(F)c2)ccc1F` [US10954228, Compound 147] it was < 100 nM.
In the case of `CC(C)(C)NC(=O)c1cccc(-c2nn(-c3nc(C(=O)O)cs3)c(CC3CC3)c2Cc2ccc([S+](N)(=O)[O-])cc2)c1` [US10954228, Compound 188] it was < 100 nM; in that of `CN(C)c1ccc(-c2cc(-c3nn(-c4nc(C(=O)O)cs4)c(CC4CC4)c3Cc3ccc(S(N)(=O)=O)c(F)c3)ccc2F)cc1` [US10954228, Compound 190], < 100 nM; in that of `NS(=O)(=O)c1ccc(Cc2c(-c3ccc(F)c(-c4cccc(F)c4)c3)nn(-c3nc(C(=O)O)cs3)c2CC2CC2)cc1F` [US10954228, Compound 196], < 100 nM.
Consider `CC(C)c1ccc(-c2cc(-c3nn(-c4nc(C(=O)O)cs4)c(CC4CC4)c3Cc3ccc(S(N)(=O)=O)c(F)c3)ccc2F)cc1` [US10954228, Compound 199], for which the IC50 is < 100 nM.
In the case of `CC(C)c1cnc(-c2cccc(-c3nn(-c4nc(C(=O)O)cs4)c(CC4CC4)c3Cc3ccc(S(N)(=O)=O)c(F)c3)c2)nc1` [US10954228, Compound 216] it was < 100 nM.
As to `CC(C)c1ccc(-c2cccc(-c3nn(-c4nc(C(=O)O)cs4)c(CC4CC4)c3Cc3ccc(S(N)(=O)=O)c(F)c3)c2)nc1` [US10954228, Compound 218], the half-maximal inhibitory concentration (IC50) was < 100 nM.
